Results reported in patent US20260364186A1, “Chemical Conjugates, Compositions, and Methods of Preparation and Use Thereof” (Transfection Holdings Limited, priority 2022, published 2026).
“Also recorded” adds a separate entry of the source.

Legend:
[1] = system: mouse embryonic fibroblasts MEF; assay: FACS uptake of BODIPY FL conjugates (Example 4); assay type: cell-based; details: 200 nM, 5 min
Description: FIG. 4B: Conjugate compounds coupled to BODIPY FL were tested for uptake using 200 nM each conjugate and 5 minute incubation with mouse embryonic fibroblasts MEF. Mean fluorescent intensities (MFI). 1,000 cells were sorted by FACS.
Fibroblasts are ubiquitous mesenchymal cells that are thought to play important roles in wound repair and healing, and serve as reservoirs of multipotent progenitors capable of repopulating depleted cell compartments. Primary mouse embryonic fibroblast (MEF) cultures consist of highly heterogeneous populations of distinct cell types. Singhal, P. K., et al., 2016. MEF cells have a limited growth capacity and on prolonged passaging spontaneously immortalize at a low frequency. In contrast to transformation of primary MEF cells that requires the presence of two cooperating oncogenes, immortalised MEF cells can be transformed by a single oncogene (Ras) resulting in a loss of contact inhibition, anchorage-independent growth, and tumour formation in nude mice. Studies of MEF cells have played an important role in the elucidation of the molecular mechanisms underlying cellular immortalization, transformation, and tumorigenesis. Additionally, utilization of MEF cells disrupted for specific genes has provided a powerful tool to analyse the genetic regulation of these cellular processes. Sun and Taneja, 2007. […]

[2] = system: NZM011, NZM009, NZM012, NZM022 and NZM077 cells; assay: Flow cytometry uptake into metastatic melanoma lines (Example 11); assay type: cell-based, human; details: 200 nM, 30 minutes
Description: FIG. 11: Uptake for compounds 124, 126, and 132 at 200 nM and 30 minute incubation with melanoma cell lines: NZM12 (NZM012) (BRAF V600E mutant metastatic melanoma, homozygous deletion CDKN2A and low invasive cell line), NZM77 (NZM077) (BRAF V600E mutant metastatic melanoma and missense NF1), NZM22 (NZM022) (BRAF G466A mutant metastatic melanoma, P53 241S/T mutant, NF1 non-frameshift insertion and PTEN epigenetic silencing). NZM9 (NZM009) (P53 179C/T mutant and homozygous silencing CDKN2A). NZM11 (NZM011) (BRAF V600E mutant metastatic melanoma and homozygous deletion CDKN2A), as positive control. Mean fluorescent intensities (MFI). 1,500-2,000 cells were obtained. Bars represent mean±SD. Results are from a single experiment done in triplicate. Cells were analysed by FACS.
Methods: For screening, NZM011, NZM009, NZM012, NZM022 and NZM077 cells were suspended at 250 cells per μL in MEMα media and 200 μL was dispensed into 96 well plates. The cells were left to settle for 24 hours for NZM011, NZM012 and NZM077 and 48 hours for NZM009 and NZM022 at 37 °C, 5% O2, 5% CO2. Before addition to the cells, 10 μL of 10 mM stock solutions in DMSO of compounds 124, 126, and 132 were diluted with 1% FBS MEMα media to give a 200 nM solution.
After the appropriate settle time, the media was removed from the 96 well plates and 200 μL of 200 nM conjugate solutions and DMSO control were dispensed to each well (in triplicate) and incubated for 30 minutes at 37 °C, 5% O2, 5% CO2. After 30 minutes, the media was removed and cells washed with PBS. Next, 100 μL of TrypLE trypsin (ThermoFisher Scientific) was added to each well and incubated for 5 minutes at 37 °C. After this, 150 μL of MEMα media (plus 1% FBS for NZM011, NZM012 and NZM077; plus 5% FBS for NZM009 and NZM022) were added. Cells were analysed by flow cytometry using a FACS biosort and FITC filter. Flow cytometry results represent the mean of the fluorescence intensities (in arbitrary units) measured for cells sorted in every sample.

Jurkat cells = assay: Flow cytometry time course of uptake (Example 12); assay type: cell-based, human; details: 200 nM
Description: FIG. 12: Time course of uptake for compounds 124, 126, and 132 at 200 nM after 5, 30 or 60 minute incubation with Jurkat cells. Mean fluorescent intensities (MFI). 1,000 cells were sorted by FACS. Bars represent mean±SD. Results represents a single experiment done in triplicate.
Materials and methods: For this study, 7.7×10^5 Jurkat cells were centrifuged for 5 minutes at 2500 RPM. The supernatant was removed and the cells were diluted in RPMI media (supplemented with 1% FBS+1% penicillin-streptomycin) to 400 cells/μL. Next, 28 μL of 100 μM stock solutions from compound 124, 126, or 132 were diluted with 6972 μL of RPMI media (supplemented with 1% FBS+1% penicillin-streptomycin) to give a 400 nM solution. Following this, 250 μL of conjugate solutions (giving a 200 nM final concentration) and 250 μL of cell suspensions were then added to each well in a 96 well plate. In addition, 250 μL of media only was added to the DMSO control wells. Incubation was carried out for 5, 30 and 60 minutes at 37 °C in triplicate wells for each compound and time point.
After incubation, cells were centrifuged for 1.5 minutes at 5000 RCF. Supernatant was removed and the cell pellet re-suspended in 200 μL fresh RPMI media, transferred to 96 well-plate and each cell suspension analysed by flow cytometry. Flow cytometry results represent the mean of the fluorescence intensities (in arbitrary units) measured for cells sorted in every sample.

CC1=CC(C)=[N+]2C1=Cc1ccc(CCCn3cc(CCNC(=O)/C=C/NC(=O)[C@H](O)C(C)(C)CO)nn3)n1[B-]2(F)F [Compound 124]
uptake (fluorescent intensities) [1]: highest uptake; also recorded: showed uptake | uptake, in words [2]: highest uptake levels; also recorded: consistent, selective and high level of uptake | times greater uptake than conjugate 132 ([2]; five cell lines): 1.5-3 times | uptake, times higher than DMSO control (Jurkat cells; 5 minutes): 4 times | uptake increase compared to DMSO control (Jurkat cells; 30 minutes): ten | uptake increase compared to DMSO control (Jurkat cells; 60 minutes): fourteen | uptake, in words (Jurkat cells; 5, 30, 60 minutes): highest uptake at every timepoint; also recorded: selective uptake
